Data as given in patent publication US3955959A, “Herbicide for use in transplanted rice” (priority 1974, dated 1976).

Tests used:
[1] = test system: ordinary transplanted rice; experiment: Example 4 field test, rice yield; format: in vivo, rice (Fortuna variety)
Protocol: (§1) In the tests described in the tables below, the herbicides were formulated and used in granular form in conventional manner. […] The commercial herbicide used was a granular product having 5% active ingredient.
(§2) In the field tests of the herbicide of this invention with transplanted rice, the rice seedlings were grown in conventional manner, by seeding the rice in a typical seedbed of sandy loam to clay soil of the country wherein the test was conducted. For laboratory and greenhouse work the seedlings were obtained by seeding rice in a mixture of soil, e.g., Ray silt loam, and peat in wood flats. For purposes of testing the herbicides on younger rice seedlings (infant or Dapog) the rice was usually allowed to grow for 6-15 days before lifting for transplanting. Older (ordinary) rice plants were usually grown for a period of about 2-3 weeks, or as much as about 7 weeks before lifting. Since the period of growth is dependent upon climatic conditions, a better measure of when to transplant the rice seedling is the leaf stage of growth; for infant or Dapog rice the seedling is lifted at the 1.5-2 leaf stage of growth, and for ordinary seedlings at the 2.5-5 leaf stage. The seedlings were then transplanted to the test plots for evaluation of the herbicide for injury against weed species present with the transplanted rice. The herbicides were then applied to the growth medium of the weeds and transplant rice, either preemergent or postemergent with respect to the weeds and postemergent with respect to the transplanted rice. Application times are designated in the tables as "DAT", meaning "days after transplant". Application rates given in the tables refer to the amount of active ingredient used.
(§3) In this example comparative field tests were conducted with Herbicides A and B on ordinary transplanted rice at Munoz, Philippines.
(§4) Twenty-one (21) day-old ordinary wet bed seedlings of the Fortuna variety were transplanted to field plots and Herbicides A and B applied at 5 DAT and 14 DAT. The field plots were overseeded with barnyardgrass (E. crusgalli) at 2 kgs/ha. Treatments were replicated four times.

[2] = test system: Obw (other broadleaf weeds); experiment: Example 5 field test, weed control, JAAPR, Japan; format: in vivo; conditions: 1.5 kg/ha, 7 DAT
Ce (Cyperus esculentus) = experiment: Example 7 greenhouse preemergence activity; format: in vivo
Protocol: In a further comparative study of the preemergence activity of Herbicides A and B, a variety of weeds and upland direct-seeded rice were tested under greenhouse conditions. The present invention is not concerned with the use of Herbicide A in direct-seeded rice. The primary purpose of the experimental work in this example is to compare relative herbicidal activity of Herbicides A and B against the weeds shown in Table 7; most of these weeds were not available for tests with transplanted rice. Although the relative selectivity of these herbicides in upland rice is also evident, that aspect of the tests is more or less incidental to the purpose of this example.
In this example, rice seeds and seeds of the weeds shown in Table 7 were sown in Ray silt loam soil at a depth of 0.5 inch (1.27 cm) in containers for the soil in a greenhouse. Herbicides A and B were applied to the surface of the soil at a spray volume equivalent to 20 gals/acre (187.1 liters/hectare), followed by 0.5 in (1.27 cm) of overhead irrigation. Temperature and relative humidity in the greenhouse were on the order of 85°F (29°C) and 75%, respectively. Observations were made at 21-28 days after seeding.
In Table 7 are shown the average rates of herbicide required to cause a growth reduction of 85% of the weeds ("GR85 "), and the average rate of herbicide required to cause a growth reduction of 15% ("GR15 ") of the rice plants (Oryza sativa, "Os", variety Bluebelle).

[3] = test system: Mv (Monochoria vaginalis); experiment: Example 5 field test, weed control, JAAPR, Japan; format: in vivo; conditions: 1.5 kg/ha, 7 DAT
[4] = test system: ordinary transplanted rice; experiment: Example 4 field test, crop injury; conditions: obs. 36 DAT
Protocol: as §1, §2, §3, §4

[5] = test system: Broadleaf: Mv, Sz (Monochoria vaginalis, Sphenoclea zeylanica); experiment: Example 3 field test on Dapog rice, weed control, Munoz, Philippines; format: in vivo, Monochoria vaginalis and Sphenoclea zeylanica; conditions: obs. 42 DAT
From the text: (§5) Treatments were replicated four times.

Monochoria vaginalis = experiment: Example 2 field test, weed control, Chia Yi, Taiwan; format: in vivo; conditions: obs. 63 DAT
Protocol: In the field tests of the herbicide of this invention with transplanted rice, the rice seedlings were grown in conventional manner, by seeding the rice in a typical seedbed of sandy loam to clay soil of the country wherein the test was conducted. For laboratory and greenhouse work the seedlings were obtained by seeding rice in a mixture of soil, e.g., Ray silt loam, and peat in wood flats. For purposes of testing the herbicides on younger rice seedlings (infant or Dapog) the rice was usually allowed to grow for 6-15 days before lifting for transplanting. Older (ordinary) rice plants were usually grown for a period of about 2-3 weeks, or as much as about 7 weeks before lifting. Since the period of growth is dependent upon climatic conditions, a better measure of when to transplant the rice seedling is the leaf stage of growth; for infant or Dapog rice the seedling is lifted at the 1.5-2 leaf stage of growth, and for ordinary seedlings at the 2.5-5 leaf stage. The seedlings were then transplanted to the test plots for evaluation of the herbicide for injury against weed species present with the transplanted rice. The herbicides were then applied to the growth medium of the weeds and transplant rice, either preemergent or postemergent with respect to the weeds and postemergent with respect to the transplanted rice. […] Application rates given in the tables refer to the amount of active ingredient used.
Rice seedlings (ordinary) of Tainan No. 5 variety (japonica) were transplanted at 19 days of growth. Granular formulations of Herbicides A and B were applied at the 1 leaf stage of grass weed (4 DAT) and 2.5 leaf stage of grass weed (10 DAT).

Ann. Cyp (Cyperus spp) = experiment: Example 5 field test, weed control, JAAPR, Japan; conditions: 1.5 kg/ha, 7 DAT
Protocol: as §1, §2
The rice seedlings were grown to the 1.7 leaf stage for infant seedlings and to the 5.5 leaf stage for ordinary seedlings. Two days after puddling the soil in which the seedlings were to be transplanted, both infant and ordinary seedlings were transplanted into plots 8.5 m^2.
The weed symbol "Obw" represents "other broadleaf weeds" of unspecified identity. Results presented in Table 5 represent the average of 2 replications.

[6] = test system: weeds in ordinary transplanted rice; experiment: Example 4 field test, overall weed control; format: in vivo
From the text: as §5

[7] = test system: Perennials Ek and Sa (Eleocharis kuroguwai, Sagittaria aginashi); experiment: Example 1 field test, perennial weed control, Iri, Korea; format: in vivo; conditions: weed weight at 63 DAT
From the text: In the field test 48 day-old seedlings (Watanabe variety) were transplanted to plots 2.5 × 6 m. seeded with the weed seeds indicated in Table 1. At 5 and 10 DAT periods, the herbicides were applied to the plants (now at the 1.2 and 2.0 leaf stage, respectively, of grass weed) at the indicated rate in kilograms per hectare (kg/ha). The weed control and rice injury results for 3 replications are reported in percentages as of the indicated times of observation. The percentages given in the "Perennials" column are based on the weight of the weeds at 63 DAT, i.e., 42 gms/3.6 m^2 for the weedy check.

`CCCCOCN(C(=O)CCl)c1c(CC)cccc1CC` [Herbicide B, n-(butoxymethyl)-2',6'-diethyl-2-chloroacetanilide, reference compound] was tested. Which “yield vs hand weeded check” value ([1]; 1.0 kg/ha, 14 DAT) did it give?
Its value is “statistically significantly lower than the hand weeded check”.

And the “Yield (% of H.W. Check)” value ([1]; 5 DAT, 1.0 kg/ha)?
The value was 115%.

And the “Yield (% of H.W. Check)” value ([1]; 5 DAT, 1.5 kg/ha)?
The value was 110%.

What about the “Yield (% of H.W. Check)” value ([1]; 5 DAT, 3.0 kg/ha) of the same molecule?
The value was 100%.

And the “Yield (% of H.W. Check)” value ([1]; 14 DAT, 1.0 kg/ha)?
The value was 82%.

What about the “Yield (% of H.W. Check)” value ([1]; 14 DAT, 1.5 kg/ha) of the same molecule?
The value was 86%.

What about the “Yield (% of H.W. Check)” value ([1]; 14 DAT, 3.0 kg/ha) of the same molecule?
Its value is 94%.

What about the “control of Obw in words” value [2] of the same molecule?
The value was “complete control”.

And the “% Weed Control (Obw)” value ([2]; infant seedlings)?
The value was 100%.

And the “% Weed Control (Obw)” value ([2]; ordinary seedlings)?
The value was 71%.

What about the “resistance of Ce” value (Ce (Cyperus esculentus)) of the same molecule?
The value was “resists”.

And the “% Weed Control (Mv)” value ([3]; infant seedlings)?
The value was 66%.

What about the “% Weed Control (Mv)” value ([3]; ordinary seedlings) of the same molecule?
The value was 86%.

And the “Crop Injury (%)” value ([4]; 5 DAT, 1.0 kg/ha)?
The value was 0%.

What about the “Crop Injury (%)” value ([4]; 5 DAT, 1.5 kg/ha) of the same molecule?
Its value is 0%.

And the “Crop Injury (%)” value ([4]; 5 DAT, 3.0 kg/ha)?
The value was 0%.

What about the “Crop Injury (%)” value ([4]; 14 DAT, 1.0 kg/ha) of the same molecule?
Its value is 0%.

What about the “Crop Injury (%)” value ([4]; 14 DAT, 1.5 kg/ha) of the same molecule?
The value was 0%.

And the “Crop Injury (%)” value ([4]; 14 DAT, 3.0 kg/ha)?
Its value is 0%.

What about the “% Weed control, Broadleaf (Mv,Sz)” value ([5]; 5 DAT, 1.0 kg/ha) of the same molecule?
Its value is 100%.

What about the “% Weed control, Broadleaf (Mv,Sz)” value ([5]; 5 DAT, 1.5 kg/ha) of the same molecule?
Its value is 100%.

What about the “% Weed control, Broadleaf (Mv,Sz)” value ([5]; 5 DAT, 3.0 kg/ha) of the same molecule?
Its value is 100%.

And the “% Weed control, Broadleaf (Mv,Sz)” value ([5]; 14 DAT, 1.0 kg/ha)?
Its value is 0%.

And the “% Weed control, Broadleaf (Mv,Sz)” value ([5]; 14 DAT, 1.5 kg/ha)?
The value was 0%.

And the “% Weed control, Broadleaf (Mv,Sz)” value ([5]; 14 DAT, 3.0 kg/ha)?
Its value is 70%.

And the “% Weed Control (Monochoria Vaginalis)” value (Monochoria vaginalis; 4 DAT, 1.0 kg/ha)?
The value was 77%.

And the “% Weed Control (Monochoria Vaginalis)” value (Monochoria vaginalis; 4 DAT, 1.5 kg/ha)?
The value was 94%.

What about the “% Weed Control (Monochoria Vaginalis)” value (Monochoria vaginalis; 4 DAT, 3.0 kg/ha) of the same molecule?
The value was 99%.

And the “% Weed Control (Monochoria Vaginalis)” value (Monochoria vaginalis; 10 DAT, 1.0 kg/ha)?
Its value is 65%.

What about the “% Weed Control (Monochoria Vaginalis)” value (Monochoria vaginalis; 10 DAT, 1.5 kg/ha) of the same molecule?
The value was 78%.

What about the “% Weed Control (Monochoria Vaginalis)” value (Monochoria vaginalis; 10 DAT, 3.0 kg/ha) of the same molecule?
The value was 89%.

And the “control of Ann. Cyp in words” value (Ann. Cyp (Cyperus spp))?
The value was “substantially complete control”.

What about the “% Weed Control (Ann. Cyp)” value (Ann. Cyp (Cyperus spp); infant seedlings) of the same molecule?
The value was 100%.

And the “% Weed Control (Ann. Cyp)” value (Ann. Cyp (Cyperus spp); ordinary seedlings)?
Its value is 99%.

And the “control of all weeds” value ([6]; 5 DAT)?
Its value is “complete control of all weeds”.

What about the “weed control in words” value ([6]; 14 DAT, 1.0 and 1.5 kgs/ha) of the same molecule?
The value was “nil”.

And the weed control ([6]; 14 DAT, 3.0 kgs/ha)?
Its weed control is 50%.

And the “% Weed Control (Perennials Ek and Sa)” value ([7]; 5 DAT, 1.0 kg/ha)?
The value was 0%.

And the “% Weed Control (Perennials Ek and Sa)” value ([7]; 5 DAT, 1.5 kg/ha)?
Its value is 41%.

What about the “% Weed Control (Perennials Ek and Sa)” value ([7]; 5 DAT, 3.0 kg/ha) of the same molecule?
The value was 0%.

What about the “% Weed Control (Perennials Ek and Sa)” value ([7]; 10 DAT, 1.0 kg/ha) of the same molecule?
The value was 0%.

And the “% Weed Control (Perennials Ek and Sa)” value ([7]; 10 DAT, 1.5 kg/ha)?
Its value is 0%.

And the “% Weed Control (Perennials Ek and Sa)” value ([7]; 10 DAT, 3.0 kg/ha)?
The value was 0%.
